The results in this text go back to patent US20250388597A1, “BIFUNCTIONAL PHOTOCROSSLINKING PROBES FOR COVALENT CAPTURE OF PROTEIN-NUCLEIC ACID COMPLEXES IN CELLS” (UNIVERSITY OF SOUTHERN CALIFORNIA, priority 2022, published 2025).

Series [1] in a line: Precipitation of probe in the aqueous crosslinking reaction. It is filed as physicochemical. The note with it: aqueous binding reaction; SPB-AAD 125 μM (FIG. 7 lanes 4, 9); SPB-PEG3-AAD 100 μM (FIG. 8C lanes 2, 6). How it is done: The robust stability of these complexes under strong denaturing conditions (2% SDS and boiling for 10 min) is consistent with the covalent nature of the crosslinking reaction as designed in BFPX. […] As the probe concentration increased, more crosslinked protein/DNA complexes were formed, and the multiple bands likely represented protein-DNA complexes with various degrees of crosslinking, because multiple SPB-AAD molecules could bind the flanking region of the DNA binding sites and engage crosslinking reactions with the protein. At high probe concentrations (lane 5 and lane 10), the complexes become more uniform, likely due to the saturation binding of the BFPX probe to DNA.
For the BFPX probe SPB-PEG3-AAD, when the probe concentration was sufficiently high (lane 3 and lane 7 of FIG. 8C), the crosslinking efficiency was more than 90% for the MEF2/DNA complex based on the DNA signal (comparing lane 3 and lane 1 in the 5FAM gel, the free DNA in lane 3 was nearly all gone as compared the strong band in lane 1). This is consistent with the protein signal (compare lane 3 and lane 1 in the CCB-250 stained gel, the free protein in lane 3 was very faint as compared with the strong band in lane 1).

Series [2] addresses T1, NFAT1/DNA complex (Homo sapiens, UniProt Q13469).
T1 construct: human NFAT1 protein (residue 399-676, NFAT1-DBD)
T1 sequence (Q13469 399-676): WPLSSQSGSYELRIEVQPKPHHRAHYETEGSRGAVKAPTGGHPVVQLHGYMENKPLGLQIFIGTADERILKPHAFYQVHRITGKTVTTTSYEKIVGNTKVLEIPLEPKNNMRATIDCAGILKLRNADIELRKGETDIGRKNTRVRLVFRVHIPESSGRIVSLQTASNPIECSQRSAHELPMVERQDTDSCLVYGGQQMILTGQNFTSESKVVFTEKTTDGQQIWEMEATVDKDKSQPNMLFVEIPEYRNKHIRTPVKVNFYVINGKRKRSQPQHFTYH
Put plainly: In vitro photo-crosslinking of assembled NFAT1/DNA complex, denaturing SDS gel. In kind it is biochemical. To be noted: for formation of covalent NFAT1/DNA crosslinked complex stable under denaturing SDS-PAGE: probe + UV 365 nm, 2% SDS, boil 10 min. How it is done: The probe binding and UV crosslinking were carried out as described in FIG. 5G and FIG. 7. The crosslinked complexes (lane 3 and lane 6) were further treated with DTT (100 mM, heat 50 degree C. for 30 min). The reaction mixtures were run on SDS gel and visualized by FAM fluorescence for DNA (top) and by Coomassie blue stain for protein (bottom) as described in FIG. 7. FIG. 7 depicts denaturing SDS gel analysis of covalent capture of in vitro assembled MEF2/DNA and NFAT1/DNA complexes by the BFPX probe, SPB-AAD. […] The protein/DNA complexes are incubated at room temperature for 30 min, and treated with various combination of BFPX probe (SPB-AAD) and UV illumination as described in FIG. 5G. […] The reaction mixtures were added SDS loading dye (2% SDS), boil for 10 min, and run on SDS gel (Bio-Rad Any Kd gradient gel). The same gel was visualized by FAM fluorescence for DNA (top) and by Coomassie blue stain for protein (bottom). FIG. 8C depicts denaturing SDS gel analysis of covalent capture of in vitro assembled MEF2/DNA and NFAT1/DNA complexes by the BFPX probe, SPB-PEG3-AAD. […] The reaction mixtures were run on SDS gel and visualized by FAM fluorescence for DNA (top) and by Coomassie blue stain for protein (bottom) as described in FIG. 7. […] Typically protein and DNA are mixed to bind at room temperature for 30 min, followed by addition of BFPX probes for an additional 15 min and then UV illumination. In the case of FA treatment, the reaction time is 10 min at room temperature and then quenched by 250 mM glycine. […] The UV illumination (as indicated by a positive sign) was carried out using a LED Chip (21.4 mm×21.4 mm, 365-370 nm, 30 Watt, sample distance 2 cm, exposure time 2-15 min at 4 degree C., here the exposure time is 15 min). […] The small amount of single stranded DNA is due to incomplete annealing. The higher smearing bands are most likely non-specific protein complexes. Neither of these experimental imperfections affected the main conclusion of this experiment because the double stranded-DNA bands and the specific NFAT-DNA complex bands (the middle sharp bands) are well defined and can be monitored without the interference of the other bands. […] The gel was visualized by Cy5 fluorescence for DNA. FIG. 12E depicts further characterization of BFPX crosslinking of NFAT1/DNA complexes using different DNA substrates and staining techniques. Two unlabeled DNA substrates containing a core NFAT-binding site and different flanking bases and sequence lengths ([…] ID NO: 4), 21 mer, c2: [NT] ID NO: 5), 16 mer) were used to bind the NFAT1-DBD as described in FIG. 12C. […] The reactions were then analyzed by SDS PAGE under denaturing condition as described in FIG. 12D. Because the DNA is unlabeled, the gel was stained using either cyanine-based dye (SYBR Safe) or Coomassie Blue stain (CB). […] The different size of the NFAT-c1DNA complexes (lane 2) and NFAT-c2DNA complexes (lane 4) was resolved by loading reactions of lane 2 (2a, 2b and 2c) and lane 4 (4a, 4b and 4c) as triplicates side-by-side on the same gel (lower panel) using either SYBR and CB stain. FIG. 12F depicts time course of BFPX crosslinking of NFAT1/DNA complexes. […] The reactions at different time points were then analyzed on SDS gel as described in FIG. 12D. […] When the UV exposure time is longer than 5 min, a significant amount of crosslinked NFAT-DNA complex can be formed with UV illumination without SPB-AAD.

Series [3] concerns the target T2, DNA binding by NFAT1 (Homo sapiens, UniProt Q13469).
T2 construct: human NFAT1 protein (residue 399-676, NFAT1-DBD)
T2 sequence (Q13469 399-676): T1 sequence (Q13469 399-676)
Kind of series: Native EMSA of the effect on DNA binding by NFAT1. In kind it is biochemical. To be noted: FIG. 12C; increasing concentrations; probes with UV 365 nm 15 min; compared to control lane 3.
Experimental: All binding reactions contain 10 μM 27 mer dsDNA (5′6-FAM labeled) with a NFAT-binding site, and various combinations of NFAT1 protein (14 μM), FA (1% v/v), 4AMT-LC-SDA (20 μM), with or without UV illumination (365 nm, LED, 30 Watt, sample distance 2 cm, exposure time 15 min at 4 degree C.). 10 μl of the binding reaction is run on a 10% PAGE 0.5×TBE gel. The same gel was visualized by FAM fluorescence for DNA (top) and by Coomassie blue stain for protein (bottom). The higher smearing bands in lane 3, 8, 9, and 10 are most likely non-specific protein complexes often seen when an excessive amount of protein is used to ensure all DNA is bound.
The binding reactions were performed in a buffer of 20 mM Hepes pH 7.6, 150 mM NaCl, 1 mM DTT, 12% glycerol. Typically protein and DNA are mixed to bind at room temperature for 30 min, followed by addition of BFPX probes for an additional 15 min and then UV illumination. In the case of FA treatment, the reaction time is 10 min at room temperature and then quenched by 250 mM glycine. When included (as indicated by a positive sign), the binding reaction contains 10 μM 27 mer dsDNA (Cy5-labeled) with a NFAT-binding site (the antigen receptor response element 2, ARRE2, from the IL-2 promoter, 5′-Cy5-[sequence]-3′ (SEQ ID NO: 2), the complementary strand is not labeled), 24 μM of the DNA binding domain (DBD) of human NFAT1 protein (residue 399-676, NFAT1-DBD). The UV illumination (as indicated by a positive sign) was carried out using a LED Chip (21.4 mm×21.4 mm, 365-370 nm, 30 Watt, sample distance 2 cm, exposure time 2-15 min at 4 degree C., here the exposure time is 15 min). Half of the binding reaction (7.5 μl) was run on a 10% PAGE 0.5×TBE gel and visualized by Cy5 fluorescence on DNA. The small amount of single stranded DNA is due to incomplete annealing. The higher smearing bands are most likely non-specific protein complexes. Neither of these experimental imperfections affected the main conclusion of this experiment because the double stranded-DNA bands and the specific NFAT-DNA complex bands (the middle sharp bands) are well defined and can be monitored without the interference of the other bands.
The presence of both DNA and protein in the same shifted band can be checked by the FAM fluorescence signal (top) and Coomassie stain (bottom), respectively (free NFAT is positively charged and not observable under the EMSA condition).

Entries after “also recorded” stand apart in the source; their conditions may differ.

Regarding `C#CCCC1(CCNC(=O)CCOCCOCCOCCC(=O)NCCNC(=O)CCCOc2c3occc3cc3ccc(=O)oc23)N=N1` [SPB-PEG3-AAD], the “precipitation of probe at highest probe concentration” value in series [1] is listed as “the probe precipitated out of solution”. In addition, the “formation of covalent NFAT1/DNA crosslinked complex stable under denaturing SDS-PAGE” value in series [2] is “highly efficient crosslinking”.

For `C#CCCC1(CCNC(=O)CCOCCOCCOCCOCCNC(=O)CCCOc2c3occc3cc3ccc(=O)oc23)N=N1` [SPB-PEG4-AAD, N-(2-(3-(but-3-yn-1-yl)-3H-diazirin-3-yl)ethyl)-1-(4-((7-oxo-7H-furo[3,2-g]chromen-9-yl)oxy)butanamido)-3,6,9,12-tetraoxapentadecan-15-amide], the “effect on the binding of NFAT1 to DNA” value in series [3] is reported as “little or no effect”. For the same compound, the “formation of covalent NFAT1/DNA crosslinked complex stable under denaturing SDS-PAGE” value in series [2] is on record as “dosage dependent crosslinking of NFAT1/DNA complexes”.

Take `C#CCCC1(CCNC(=O)CCCOc2c3occc3cc3ccc(=O)oc23)N=N1` [SPB-AAD, N-(2-(3-(but-3-yn-1-yl)-3H-diazirin-3-yl)ethyl)-4-((7-oxo-7H-furo[3,2-g]chromen-9-yl)oxy)butanamide]: the “precipitation of probe at highest probe concentration” value in series [1] is listed as “precipitation of the probe in an aqueous solution”. For the same compound, the “effect on the binding of NFAT1 to DNA” value in series [3] was “little or no effect”. Besides, the “low probe concentration at which a significant amount of crosslinked protein complex was observed” value in series [2] (NFAT1/DNA, FIG. 7 lane 12, UV 365 nm) was determined as 0.125 µM. The “UV illumination time at which crosslinked complex was visible” value in series [2] (NFAT1/DNA, probe 100 μM) was found to be 3 s. The “UV illumination time at which crosslinking reached plateau” value in series [2] (NFAT1/DNA, probe 100 μM, plateau around 100 seconds and 5 min time points) is recorded as “around 100 seconds”. Moreover, the “formation of covalent NFAT1/DNA crosslinked complex stable under denaturing SDS-PAGE” value in series [2] is “dosage dependent crosslinking of NFAT1/DNA complexes; also recorded: formation of complexes that run as larger molecular species than both free protein and DNA; also recorded: NFAT was crosslinked to c1 DNA (lane 2) and c2 DNA (lane 4) in the presence of UV”.
